Results from paper PMC5062470, “The mGluR2 positive allosteric modulator, SAR218645, improves memory and attention deficits in translational models of cognitive symptoms associated with schizophrenia” (Scientific Reports, 2016).

Experiments:
[1] = tested on: approximately 180 different receptors, ion channels, enzymes, transporters and kinases; assay: In vitro selectivity profile (CEREP and internal panels); type: binding; settings: up to 10 μM
Protocol: The effect of SAR218645 on approximately 180 different receptors, ion channels, enzymes, transporters and kinases (see Supplementary Material Table S1) was evaluated at a contract research organization (CEREP, Celle L’Evescault, France) using established protocols or through internal studies.

mice = tested on: mice; design: method as in earlier work; settings: wide dose-range; cited from earlier work
Swiss mice = assay: Amphetamine-induced locomotor hyperactivity; type: in vivo
Protocol: An actimeter device consisting of a cylinder (20 cm diameter, 9.5 cm height, Apelex, France) equipped with two perpendicular light beams located 1.5 cm above the floor was used. Mice from the transgenic batches (DAT^−/− and NMDA Nr1^neo−/−) were orally pretreated with either SAR218645 or vehicle and individually isolated in boxes for a period of 60 min. Animals were then placed in the actimeter device and locomotor activity (number of interrupted light beams) was recorded for a period of 30 or 60 min. Mice in which the expression of the dopamine transporter (DAT) was knocked out (i.e., the DAT^−/− mouse) have been proposed as a reliable model of the positive symptoms of schizophrenia. In these mice, dopamine levels in the synapse are dramatically elevated and these animals are hyperactive and agitated in behavioral tests. […] Immediately following amphetamine challenge, 30 min after MK-801 challenge, mice were placed in the actimeter devices and locomotor activity was recorded for a period of 30 (DAT^−/−) or 60 (NMDA Nr1^neo−/−) min.
Statistical analyses were performed using SAS V8.2 software (SAS Institute, Cary, NC, USA). The number of light beam breaks (motility count) recorded for 30 or 60 min were analyzed using one-way ANOVAs using a fixed factor of challenge or genotype and complementary post hoc (Newman-Keuls) tests were performed. […]

DAT−/− mice = assay: Spontaneous locomotor hyperactivity of transgenic mice; type: in vivo
Protocol: (§1) An actimeter device consisting of a cylinder (20 cm diameter, 9.5 cm height, Apelex, France) equipped with two perpendicular light beams located 1.5 cm above the floor was used. Mice from the transgenic batches (DAT^−/− and NMDA Nr1^neo−/−) were orally pretreated with either SAR218645 or vehicle and individually isolated in boxes for a period of 60 min. Animals were then placed in the actimeter device and locomotor activity (number of interrupted light beams) was recorded for a period of 30 or 60 min. Mice in which the expression of the dopamine transporter (DAT) was knocked out (i.e., the DAT^−/− mouse) have been proposed as a reliable model of the positive symptoms of schizophrenia. In these mice, dopamine levels in the synapse are dramatically elevated and these animals are hyperactive and agitated in behavioral tests. NMDA Nr1^neo−/− mice express only 5 to 10% of normal levels of the NR1 subunit of the NMDA receptor[33], thus mimicking a hypo-glutamatergic state. […] As such, they have been proposed as an animal model of schizophrenia. […] As such, in our present experiments, a relatively moderate dose of amphetamine (2 mg/kg ip) or MK-801 (0.2 mg/kg, ip) was used to selectively induce similar hyperactivity, with no noticeable appearance of stereotyped behaviors in normal mice. For amphetamine or MK-801 antagonism experiments, male Swiss mice (20–30 g) were orally pretreated with SAR218645, haloperidol or vehicle, immediately individually isolated in a Plexiglas box, followed 30 min later by administration of vehicle, amphetamine or MK-801. Immediately following amphetamine challenge, 30 min after MK-801 challenge, mice were placed in the actimeter devices and locomotor activity was recorded for a period of 30 (DAT^−/−) or 60 (NMDA Nr1^neo−/−) min.
(§2) Statistical analyses were performed using SAS V8.2 software (SAS Institute, Cary, NC, USA). The number of light beam breaks (motility count) recorded for 30 or 60 min were analyzed using one-way ANOVAs using a fixed factor of challenge or genotype and complementary post hoc (Newman-Keuls) tests were performed. Five to nine animals per group were used.

NMDA Nr1neo−/− mice [2] = assay: as above; type: in vivo
Protocol: as §1, §2

NMDA Nr1neo−/− mice [3] = assay: Y-maze test; type: in vivo
Protocol: The apparatus consisted of 3 arms in gray PVC in the shape of a Y. Arms were 28 cm long, 6 cm wide with walls 15 cm high. Movement was tracked manually using in-house software by an experimenter located in an adjacent room via a camera mounted directly above the maze. The animal was placed in an arm facing the center (Arm A) for 5 min. A correct alternation occurred when the animal moved to the other 2 arms without retracing its steps (i.e. Arm A to B to C). Movements such as ABA were incorrect. Based on the movement over the entire session, the percentage of correct alternations was calculated [i.e., (Total number of alternations × 100)/(Total number of arm entries-2)]. SAR218645 was administered po at 0.1 mg/kg 60 min prior to testing to either wild-type or NMDA Nr1^neo−/− mice. No dose-response effect was investigated due to the limited number of transgenic animals available. Statistics performed on total arm entries and percentage alternation consisted of using a two-way ANOVA, followed by a post-hoc Winer test for individual comparisons. Student’s t-test was used to compare the performance of each group with the chance level. Ten to eleven animals per group were used.

OF1 mice = assay: Maximal electroshock seizure (MES) test; type: in vivo
Protocol: SAR218645 (30 mg/kg, po) and the reference anticonvulsant agent, diazepam (10 mg/kg), were administered ip to OF1 mice (12–14 g) 30 min prior to test, respectively. An electrical stimulus (60 Hz, 0.8 ms rectangular pulse, 0.4 s duration, 50 mA) was applied to both corneas. The occurrence of tonic extension of the hindlimbs was noted.

native mouse mGluR2 = molecular target: T1, native mouse mGluR2 (Mus musculus, UniProt Q14BI2); assay: [35S]GTPγS binding to mouse cortex; type: biochemical; settings: absence of glutamate
T1 construct: SAR218645 acted as a pure mGluR2 PAM at native mouse mGluR2 in the cortex; from tissue; host or cells: mouse cortex membranes
Protocol: The assay was performed in 96-well filtration plates in 250 μl total volume. […] For termination of the reaction, the plate was filtered and dried prior to adding 50 μl Microscint 40, and counted on the 1450 TopCount Microbeta Counter. EC50 were calculated using 4-parameter curve fitting.

rat mGluR2 = rat mGluR2 (Rattus norvegicus, UniProt P31421); assay: Ca2+ mobilization assay, HEK293 cells expressing rat mGluR2/Gα16
Protocol: Recombinant rat and human mGluR2 receptors were stably expressed in HEK293 Flp-in-T-REx cell lines with Gα16. Receptor and G-protein expression were induced with either tetracycline or doxycycline 20–24 hr before the experiment. Growth medium was replaced with HBSS buffer containing Ca^2+ and Mg^2+, 20 mM HEPES. Calcium mobilization was monitored using Fluo-4 or Calcium-3 dye on a Functional Drug Screening System (FDSS) reader (Hamamatsu Photonics, Hamamatsu City, Japan). Responses were measured as peak fluorescence intensity minus basal fluorescence. EC50 values were calculated using 4-parameter curve fitting.

CD-1 mice = assay: LY404039-induced turning behavior; type: in vivo
Protocol: Under light restraint, a single unilateral intracortical infusion of the selective mGluR2/3 receptor agonist, LY404039, was performed in CD-1 mice (25–30 g at arrival). An injection point was assessed using the eyes and back of the skull as landmarks. Immediately following the application of LY404039, the observation period began. The number of contralateral turns elicited in a 5 min period was recorded. SAR218645 was administered orally 60 min before infusion of LY404039 and the potentiation of the turning behavior was noted. The selective mGluR2/3 receptor antagonist, LY341495, was administered ip 90 min prior to infusion of LY404039. Statistical analysis was performed using Kruskal Wallis test followed by a Wilcoxon two-tailed comparison. Ten animals per group were used.

Chain of rat mGluR2 (P31421 19-872): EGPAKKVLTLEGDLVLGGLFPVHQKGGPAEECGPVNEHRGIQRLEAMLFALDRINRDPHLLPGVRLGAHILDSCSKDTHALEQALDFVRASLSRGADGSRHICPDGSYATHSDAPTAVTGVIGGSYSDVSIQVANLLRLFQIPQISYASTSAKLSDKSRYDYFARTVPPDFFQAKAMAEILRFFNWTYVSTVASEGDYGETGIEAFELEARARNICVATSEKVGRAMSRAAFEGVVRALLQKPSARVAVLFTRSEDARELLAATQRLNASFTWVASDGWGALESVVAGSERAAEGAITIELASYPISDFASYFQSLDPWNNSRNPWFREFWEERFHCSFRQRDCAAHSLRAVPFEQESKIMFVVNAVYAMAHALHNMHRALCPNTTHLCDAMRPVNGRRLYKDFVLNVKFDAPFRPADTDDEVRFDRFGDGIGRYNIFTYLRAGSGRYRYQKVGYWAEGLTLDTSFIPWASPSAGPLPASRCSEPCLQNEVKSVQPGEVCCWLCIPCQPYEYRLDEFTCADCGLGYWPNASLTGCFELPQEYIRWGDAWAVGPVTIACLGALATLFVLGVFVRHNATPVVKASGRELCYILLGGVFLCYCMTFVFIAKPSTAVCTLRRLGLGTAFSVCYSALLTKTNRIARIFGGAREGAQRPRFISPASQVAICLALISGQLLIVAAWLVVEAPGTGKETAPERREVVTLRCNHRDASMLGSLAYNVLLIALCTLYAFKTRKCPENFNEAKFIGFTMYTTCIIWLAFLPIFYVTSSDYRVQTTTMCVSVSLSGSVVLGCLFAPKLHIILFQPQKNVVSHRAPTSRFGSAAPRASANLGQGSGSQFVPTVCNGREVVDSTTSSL
T1 sequence (Q14BI2 19-872): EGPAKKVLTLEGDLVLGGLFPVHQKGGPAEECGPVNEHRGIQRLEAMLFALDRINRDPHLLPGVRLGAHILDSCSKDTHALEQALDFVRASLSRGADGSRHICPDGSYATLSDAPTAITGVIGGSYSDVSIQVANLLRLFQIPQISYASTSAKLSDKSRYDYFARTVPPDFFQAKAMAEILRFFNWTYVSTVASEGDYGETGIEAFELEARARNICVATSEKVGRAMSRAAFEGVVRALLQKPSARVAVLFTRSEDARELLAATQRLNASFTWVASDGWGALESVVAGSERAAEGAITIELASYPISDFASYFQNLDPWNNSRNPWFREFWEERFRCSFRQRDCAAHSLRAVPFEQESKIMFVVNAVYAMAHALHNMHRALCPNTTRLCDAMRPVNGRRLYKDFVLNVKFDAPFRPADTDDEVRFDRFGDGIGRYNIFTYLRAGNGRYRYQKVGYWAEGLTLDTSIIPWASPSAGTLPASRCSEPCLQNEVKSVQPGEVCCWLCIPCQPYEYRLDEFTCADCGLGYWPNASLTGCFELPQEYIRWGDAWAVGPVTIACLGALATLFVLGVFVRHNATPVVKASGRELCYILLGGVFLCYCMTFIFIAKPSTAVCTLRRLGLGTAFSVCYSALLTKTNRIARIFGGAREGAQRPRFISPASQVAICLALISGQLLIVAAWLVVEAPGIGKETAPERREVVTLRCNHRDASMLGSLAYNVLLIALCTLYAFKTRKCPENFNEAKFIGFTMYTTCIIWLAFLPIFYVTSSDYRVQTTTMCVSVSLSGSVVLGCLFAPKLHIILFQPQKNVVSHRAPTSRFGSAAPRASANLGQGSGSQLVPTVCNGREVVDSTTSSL

## CC1(C)CCc2cc(OC[C@@H]3Cn4ccc(=O)nc4O3)ccc21 [SAR218645, (S)-2-(1,1-dimethyl-indan-5-yloxymethyl)-2,3-dihydro-oxazolo[3,2-a]pyrimidin-7-one]
[1]
  inhibition of radioligand binding, panel: no interaction
mice
  effect on the ability of haloperidol and risperidone to alleviate psychostimulant-induced hyperactivity: did not alter
Swiss mice; amphetamine 2 mg/kg ip, SAR218645 po
  effect on locomotor activity: no effects
Swiss mice; dose-range 0.1–10, po, Swiss mice
  Minimal active dose: >10 mg/kg
DAT−/− mice; DAT−/− mice, SAR218645 po
  effect on locomotor activity: no effects
DAT−/− mice; dose-range 3–10, po
  Minimal active dose: >10 mg/kg
NMDA Nr1neo−/− mice [2]; NMDA Nr1neo−/− mice, SAR218645 po
  effect on locomotor activity: no effects
NMDA Nr1neo−/− mice [2]; dose-range 1–10, po
  Minimal active dose: >10 mg/kg
NMDA Nr1neo−/− mice [3]; 0.1 mg/kg po, P < 0.05
  spontaneous alternations versus saline-treated transgenic animals: significantly more spontaneous alternations
NMDA Nr1neo−/− mice [3]; 0.1, po
  Minimal active dose: 0.1 mg/kg
OF1 mice; 30 mg/kg ip
  Tonic seizures: 100%
OF1 mice; 30, ip, OF1 mice
  Minimal active dose: >30 mg/kg
Native mouse mGluR2
  intrinsic activity: did not have any intrinsic activity
Rat mGluR2; EC10 concentration (100 nM) of glutamate
  effect on response to EC10 glutamate: enhanced sensitivity to glutamate
Rat mGluR2; absence of glutamate
  intrinsic agonism (compound alone): no effect per se
Rat mGluR2; increasing concentrations of SAR218645
  effect on maximal response to glutamate: no significant increase
Rat mGluR2; increasing concentrations of SAR218645, HEK293 rat mGluR2/Gα16
  enhancement of glutamate potency (leftward shift of glutamate concentration-response curve): approximately 25 fold
CD-1 mice; 3 and 10 mg/kg po, 60 min before LY404039 infusion, P < 0.01
  effect on LY404039-induced turning behavior: potentiated significantly
CD-1 mice; dose-range 1–10, po, CD-1 mice
  Minimal active dose: 3 mg/kg
